Laboratory results taken from patent US20260337153A1, “IONIZABLE AMINE LIPIDS” (Intellia Therapeutics, Inc., priority 2023, published 2026).
Values joined by “and” are separate entries in the source; they are usually repeats but may differ in a detail not shown here. Equal values may be shown once.

Key:
[1] = pKa of unformulated amine lipid by TNS fluorescence; assay type: physicochemical; conditions: sodium phosphate buffer; Table 2; unformulated amine lipid, TNS; read-out: Lipid pKa
Method: The pKa of each amine lipid was determined according to the method in Jayaraman, et al. (Angew Chem Int Ed Engl 51(34), 2012, 8529-8533) with the following adaptations. The pKa was determined for unformulated amine lipid in ethanol. Lipid stock solutions (2.94 mM) were diluted into Sodium Phosphate Buffers (0.1 M, Boston Bioproducts) of different pH (pH-range: 4.5-9.0) yielding a final lipid concentration of approx. 100 μM. The test samples were supplemented with TNS {6-(p-Toluidino)-2-naphthalenesulfonic acid sodium salt}, incubated and the fluorescence intensity was measured using excitation and emission wavelengths of 321 nm and 448 nm, respectively. The recorded data were normalized and the respective pKa values were derived from sigmoidal fitting.

[2] = LNP encapsulation efficiency of RNA (Ribogreen fluorescence assay); assay type: physicochemical; conditions: Table 3, Experiments 1-13; LNP 50% ionizable lipid, 38% cholesterol, 9% DSPC, 3% PEG2K-DMG; sgRNA:mRNA 1:2
Method: LNP compositions are analyzed for average particle size, polydispersity index (pdi), total RNA content, encapsulation efficiency of RNA, and zeta potential. LNP compositions may be further characterized by lipid analysis, AF4-MALS, NTA, and/or cryo-EM.
Encapsulation efficiency is calculated as (Total RNA−Free RNA)/Total RNA. A fluorescence-based assay (Ribogreen®, ThermoFisher Scientific) is used to determine total RNA concentration and free RNA. LNP samples are diluted appropriately with 1×TE buffer containing 0.2% Triton-X 100 to determine total RNA or 1×TE buffer to determine free RNA. Standard curves are prepared by utilizing the starting RNA solution used to make the compositions and diluted in 1×TE buffer+/−0.2% Triton-X 100. Diluted RiboGreen® dye (according to the manufacturer's instructions) is then added to each of the standards and samples and allowed to incubate for approximately 10 minutes at room temperature, in the absence of light. A SpectraMax M5 Microplate Reader (Molecular Devices) is used to read the samples with excitation, auto cutoff and emission wavelengths set to 488 nm, 515 nm, and 525 nm respectively. Total RNA and free RNA are determined from the appropriate standard curves. Alternatively, the total RNA concentration can be determined by a reverse-phase ion-pairing (RP-IP) HPLC method. Triton X-100 is used to disrupt the LNPs, releasing the RNA. The RNA is then separated from the lipid components chromatographically by RP-IP HPLC and quantified against a standard curve using UV absorbance at 260 nm.
In vivo editing efficiency for materials delivered with formulations including various amine lipid (or ionizable lipid) compounds in Experiments 1 through 14 as described in Tables 3 and 4 was assessed. Editing was measured using G000534 (SEQ ID NO: 5) which targets the rat TTR gene. Lipids described above were assessed for efficacy through in vivo editing experiments. LNPs were formulated at a 1:2 w/w ratio of sgRNA (SEQ ID NO: 5) and Cas9 mRNA (SEQ ID NO: 3). In Experiments 1 through 13, lipid components of the LNP are formulated in a molar ratio of 50% ionizable lipid, 38% cholesterol, 9% DSPC, and 3% PEG2K-DMG. In Experiment 14, lipid components of the LNP are formulated in a molar ratio of 50% ionizable lipid, 38% cholesterol, 9% DSPC, and 3% C13 Ether. The final LNPs used in different in vivo editing experiments were characterized to determine the encapsulation efficiency (% E), polydispersity index (PDI), and average particle size (Z-avg and number mean) according to the analytical methods provided above. The pKa values of each of the following ionizable lipids were also measured to be in the range of about 5.8 to about 7.6.
In vivo editing efficiency for materials delivered with formulations including various combinations of amine lipid (or ionizable lipid) and PEG lipid compounds was assessed as described in Tables 5 and 6. Editing was measured using G000534 (SEQ ID NO: 5) which targets the rat TTR gene. Lipids described above were assessed for efficacy through in vivo editing experiments. LNPs were formulated at a 1:2 w/w ratio of sgRNA (SEQ ID NO: 5) and Cas9 mRNA (SEQ ID NO:3). Lipid components of the LNP are formulated in a molar ratio of 50% ionizable lipid, 38% cholesterol, 9% DSPC, and 3% of various PEG lipids (e.g., PEG2K-DMG, C13 Ether, C14 Ether). The final LNPs used in different in vivo editing experiments were characterized to determine the encapsulation efficiency (% E), polydispersity index (PDI), and average particle size (Z-avg and number mean) according to the analytical methods provided above. The pKa values of each of the following ionizable lipids were also measured to be in the range of about 5.8 to about 7.6.
In vivo editing efficiency for materials delivered with formulations including various amine lipid (or ionizable lipid) compounds as described in Tables 7 and 8 was assessed. […]

Row | Structure (SMILES) | pKa [1] | % E (encapsulation efficiency) [2]
1 | CCCCC/C=C\C/C=C\CCCCCCCC(=O)OCC(CCCCC(=O)OC(CCCC)CCCC)COC(=O)OCCCN(CC)CC (stereo not shown) [Compound 14, 2-((((3-(diethylamino)propoxy)carbonyl)oxy)methyl)-7-(nonan-5-yloxy)-7-oxoheptyl (9Z,12Z)-octadeca-9,12-dienoate] | 6.27 | 96%
2 | CCCCC/C=C\C/C=C\CCCCCCCC(=O)OCC(CCCCC(=O)OC(CCCCCCCC)CCCCCCCC)COC(=O)OCCCN(CC)CC (stereo not shown) [Compound 15, 2-((((3-(diethylamino)propoxy)carbonyl)oxy)methyl)-7-(heptadecan-9-yloxy)-7-oxoheptyl (9Z,12Z)-octadeca-9,12-dienoate] | 6.11 | 98%
3 | CCCCC/C=C\C/C=C\CCCCCCCC(=O)OCC(CCCCC(=O)OC(CCCCCC)CCCCCC)COC(=O)OCCCN(CC)CC (stereo not shown) [Compound 17, 2-((((3-(diethylamino)propoxy)carbonyl)oxy)methyl)-7-oxo-7-(tridecan-7-yloxy)heptyl (9Z,12Z)-octadeca-9,12-dienoate] | 6.13 | 99%
4 | CCCCC/C=C\C/C=C\CCCCCCCC(=O)OCC(CCCCCCC(=O)OC(CCCCCC)CCCCCC)COC(=O)OCCCN(CC)CC (stereo not shown) [Compound 18, 2-((((3-(diethylamino)propoxy)carbonyl)oxy)methyl)-9-oxo-9-(tridecan-7-yloxy)nonyl (9Z,12Z)-octadeca-9,12-dienoate] | 6.08 | 99%
5 | CCCCC/C=C\C/C=C\CCCCCCCC(=O)OCC(CCCCCCCCC(=O)OC(CCCCCC)CCCCCC)COC(=O)OCCCN(CC)CC (stereo not shown) [Compound 19, 2-((((3-(diethylamino)propoxy)carbonyl)oxy)methyl)-11-oxo-11-(tridecan-7-yloxy)undecyl (9Z,12Z)-octadeca-9,12-dienoate] | 6.09 | 99%
6 | CCCCC/C=C\C/C=C\CCCCCCCC(=O)OCC(CCCCCCCCC(=O)OC(CCCCCCCC)CCCCCCCCC)COC(=O)CCC(CCCC)OC(=O)NCCN(C)CC (stereo not shown) [Compound 26, 9-butyl-3-methyl-15-(9-(octadecan-9-yloxy)-9-oxononyl)-7,12-dioxo-8,13-dioxa-3,6-diazahexadecan-16-yl (9Z,12Z)-octadeca-9,12-dienoate] | 6.36 | 98%
7 | CCCCCCCCC(CCCCCCCC)OC(=O)CCCC(=O)OCC(COC(=O)CCCC(=O)OC(CCCCCCCC)CCCCCCCC)COC(=O)NCCN1CCCC1 [Compound 29, di(heptadecan-9-yl) O,O′-(2-((((2-(pyrrolidin-1-yl)ethyl)carbamoyl)oxy)methyl)propane-1,3-diyl) diglutarate] | 7.1 | 100%
8 | CCCCCCCCC(CCCCCCCC)OC(=O)CCCC(=O)OCC(COC(=O)CCCC(=O)OC(CCCCCCCC)CCCCCCCC)COC(=O)OCCCN(C)CC [Compound 30, O,O′-(2-((((3-(ethyl(methyl)amino)propoxy)carbonyl)oxy)methyl)propane-1,3-diyl) di(heptadecan-9-yl) diglutarate] | 6.4 | 99%

Second part, the compound after the results:

Row | pKa [1] | % E (encapsulation efficiency) [2] | Structure (SMILES)
9 | 6.64 | 98% | CCCCC/C=C\C/C=C\CCCCCCCC(=O)OCC(CCCCC(=O)OC(CCCC)CCCC)COC(=O)OCCCN(C)CC (stereo not shown) [Compound 13, 2-((((3-(ethyl(methyl)amino)propoxy)carbonyl)oxy)methyl)-7-(nonan-5-yloxy)-7-oxoheptyl (9Z,12Z)-octadeca-9,12-dienoate]
10 | 5.98 | 99% | CCCCC/C=C\C/C=C\CCCCCCCC(=O)OCC(CCCCCCC(=O)OC(CCCCCCCC)CCCCCCCC)COC(=O)OCCCN(CC)CC (stereo not shown) [Compound 16, 2-((((3-(diethylamino)propoxy)carbonyl)oxy)methyl)-9-(heptadecan-9-yloxy)-9-oxononyl (9Z,12Z)-octadeca-9,12-dienoate]
11 | 6.19 | 98% | CCCCC/C=C\C/C=C\CCCCCCCC(=O)OCC(CCCCCCC(=O)OC(CCCC)CCCC)COC(=O)OCCCN(CC)CC (stereo not shown) [Compound 20, 2-((((3-(diethylamino)propoxy)carbonyl)oxy)methyl)-9-(nonan-5-yloxy)-9-oxononyl (9Z,12Z)-octadeca-9,12-dienoate]
12 | 6.66 | 99% | CCCCCCCCOC(CCC(=O)OCC(COC(=O)CCC(OCCCCCCCC)OCCCCCCCC)COC(=O)NCCN(CC)CC)OCCCCCCCC [Compound 22, 2-((((2-(diethylamino)ethyl)carbamoyl)oxy)methyl)propane-1,3-diyl bis(4,4-bis(octyloxy)butanoate)]
13 | 6.49 | 92% and 95% | CCCCC/C=C\C/C=C\CCCCCCCCC(COC(=O)CCCCCC(=O)OC(CCCCCCCC)CCCCCCCC)COC(=O)NCCN(CC)CC (stereo not shown) [Compound 23, 1-((11Z,14Z)-2-((((2-(diethylamino)ethyl)carbamoyl)oxy)methyl)icosa-11,14-dien-1-yl) 7-(heptadecan-9-yl) heptanedioate]
14 | 6.1 | 98% | CCCCC/C=C\C/C=C\CCCCCCCC(=O)OCC(CCCCCCCCC(=O)OC(CCCCCCCC)CCCCCCCCC)COC(=O)CCC(CCCCCCCC)OC(=O)NCCN(C)CC (stereo not shown) [Compound 24, 3-methyl-15-(9-(octadecan-9-yloxy)-9-oxononyl)-9-octyl-7,12-dioxo-8,13-dioxa-3,6-diazahexadecan-16-yl (9Z,12Z)-octadeca-9,12-dienoate]
15 | 6.44 | 98% | CCCCC/C=C\C/C=C\CCCCCCCC(=O)OCC(CCCCCCCCC(=O)OC(CCCCCCCC)CCCCCCCCC)COC(=O)CCC(CCCCCCCC)OC(=O)NCCN1CCCC1 (stereo not shown) [Compound 25, 11-(octadecan-9-yloxy)-11-oxo-2-(((4-(((2-(pyrrolidin-1-yl)ethyl)carbamoyl)oxy)dodecanoyl)oxy)methyl)undecyl (9Z,12Z)-octadeca-9,12-dienoate]
16 | 6.75 | 98% | CCCCC/C=C\C/C=C\CCCCCCCC(=O)OCC(CCCCCCCCC(=O)OC(CCCCCCCC)CCCCCCCCC)COC(=O)CCC(CCCC)OC(=O)NCCN1CCCC1 (stereo not shown) [Compound 27, 11-(octadecan-9-yloxy)-11-oxo-2-(((4-(((2-(pyrrolidin-1-yl)ethyl)carbamoyl)oxy)octanoyl)oxy)methyl)undecyl (9Z,12Z)-octadeca-9,12-dienoate]
17 | 6.2 | 99% | CCCCCCCCC(CCCCCCCC)OC(=O)CCCC(=O)OCC(COC(=O)CCCC(=O)OC(CCCCCCCC)CCCCCCCC)COC(=O)NCCN1CCCCC1 [Compound 28, di(heptadecan-9-yl) O,O′-(2-((((2-(piperidin-1-yl)ethyl)carbamoyl)oxy)methyl)propane-1,3-diyl) diglutarate]
